According to US20200397700A1, “GRANULAR COMPOSITION, PRODUCTION METHOD FOR GRANULAR COMPOSITION, AND DISSOLUTION PROPERTY IMPROVEMENT METHOD FOR GRANULAR COMPOSITION” (NIPPON SHINYAKU CO., LTD., priority 2018, published 2020):
Counter-ions that a name gives are not always drawn.

Assay: Dissolution test, Japanese Pharmacopoeia 17th Edition, paddle method, water
Assay type: physicochemical
Conditions: for dissolution rate of the mixture with an excipient after compression molding versus the mixture not compression molded: drug mixed with an excipient, compression molded in the same manner as in this embodiment
Protocol: With respect to the granular compositions of Examples 1 to 8, and Comparative Examples 1 to 8 prepared as described above, a dissolution test was performed. The dissolution test was performed according to the dissolution test method of the Japanese Pharmacopoeia, Seventeenth Edition. By using a dissolution testing device (NTR-6000 series, manufactured by Toyama Sangyo Co., Ltd.), the dissolution test was performed by a paddle method using water as a dissolution test liquid. At this time, the volume of the dissolution test liquid was set to 900 mL, the temperature of the dissolution test liquid was set to 37 ±0.5° C., and the paddle rotation rate was set to 50 rpm. With respect to the respective Examples and the respective Comparative Examples, the total amount was added to the dissolution test liquid, and the dissolution test liquid was sampled at 5, 10, 15, 30, 45, 60, 90, and 120 minutes after the start of the test, and filtered through a 0.45-μm filter (manufactured by Whatman GE Healthcare Biosciences), and then, the dissolution rate of Compound (I) was measured using high performance liquid chromatography.
FIGS. 5 to 9 show the time course of the dissolution rate of Compound (I) in the granular compositions of Examples 1 to 5, respectively, and also show the time course of the dissolution rate of Compound (I) in Comparative Examples 1 to 5, respectively. […] In FIGS. 5 to 11, the vertical axis represents the dissolution rate (unit: %) and the horizontal axis represents a time (unit: min). The solid lines E1 to E8 represent the cases of Examples 1 to 8, respectively, and the broken lines C1 to C8 represent the cases of Comparative Examples 1 to 8, respectively.

| Structure (SMILES) | dissolution property of Compound (I) (in a granule obtained by a fluidized bed granulation method) | dissolution rate of the mixture with an excipient after compression molding versus the mixture not compression molded |
| --- | --- | --- |
| CC(C)N(CCCCOCC(=O)NS(C)(=O)=O)c1cnc(-c2ccccc2)c(-c2ccccc2)n1 [Compound (I), 2-{4-[N-(5,6-diphenylpyradin-2-yl)-N-isopropylamino]butyloxy}-N-(methylsulfonyl)acetamide] | low | – |
| CC(=O)Nc1ccc(O)cc1 [acetaminophen] | – | substantially equivalent |
| CCN(CC)C(=O)Nc1ccc(OCC(O)CNC(C)(C)C)c(C(C)=O)c1 (stereo not shown) [celiprolol hydrochloride] | – | substantially equivalent |
| COc1ccc2c(c1)c(CC(=O)O)c(C)n2C(=O)c1ccc(Cl)cc1 [indomethacin] | – | substantially equivalent |
